Results published in patent publication US20210330683A1, “COMPOSITIONS AND METHODS FOR ENHANCED DELIVERY OF ANTIVIRAL AGENTS” (POVIVA CORP., priority 2020, published 2021).

Assay: Plasma exposure (pharmacokinetics) of darunavir and efavirenz after oral administration of formulations
Details: for concentration at 1 h / concentration at 2 h: male, Sprague-Dawley, 10 mg/kg, average plasma concentration
Method: In this study, the exposure and distribution of darunavir and efavirenz were evaluated following oral administration in male Sprague-Dawley rats. Four cohorts of 10 rats each were used in this study. The first cohort involved darunavir using the disclosed formulations and the second cohort darunavir in a control formulation. The third cohort involved efavirenz using the disclosed formulations and the fourth cohort efavirenz in a control formulation.
Formulations were administered orally (PO) at 10 mg/kg of darunavir or efavirenz. Following dosing, blood, urine and fecal samples were collected up to 8-hour post dose (groups 1, 3, 5, and 7) or 24-hour post dose (groups 2, 4, 6, and 8). Brain tissue was collected at 8 hours or 24 hours, following the 8 hour or 24-hour urine and feces sample collection. Plasma, urine, feces, and brain tissue concentrations of the analytes were determined by LC-MS/MS. Plasma pharmacokinetic parameters were determined using WinNonlin (v8.0) software.
Plasma, urine, feces, and brain tissue samples were extracted and analyzed using the methods described as follows.
Analytical stock solutions (1.00 mg/mL of the free drug) were prepared in DMSO. Sample Homogenization Brain tissue and feces samples were homogenized with a Virsonic 100 ultrasonic homogenizer. Each brain tissue sample was first weighed, and then an appropriate volume of 20:80 methanol:water was added to make a 2 mL/gram sample. Samples were then homogenized on ice, and stored frozen until analysis. Feces samples were homogenized with 20:80 MeOH:water (8 mL/gram of tissue) prior to extraction. Standard Preparation (Plasma, Urine, and Brain) Standards were prepared in rat plasma containing sodium heparin as the anticoagulant, or in blank tissue homogenate. Working solutions were prepared in 50:50 acetonitrile:water. Working solutions were then added to blank matrix to make calibration standards to final concentrations of 1000, 500, 250, 100, 75.0, 50.0, 25.0, and 10 ng/mL. Standards were treated identically to the study samples. Sample Extraction (Plasma, Urine, Feces, and Brain) Plasma, urine, feces, and brain tissue samples were manually extracted via acetonitrile precipitation in a 96-well plate. Urine samples were diluted a minimum of 5-fold into blank rat plasma prior to extraction. Diluted urine samples were quantified against the rat plasma calibration curve. Brain and feces tissue homogenates were quantified against calibration curves prepared in matched blank tissue homogenate.

[1] = rat, in vivo, po, animals given the control formulation, rats
[2] = rat, plasma, po, animals given the control formulation, rats
[3] = rat, plasma, po, test animals (disclosed test formulation), rats

Row | concentration at 1 h [2] [ng/mL] | concentration at 2 h [2] [ng/mL] | concentration at 1 h [3] [ng/mL] | concentration at 2 h [3] [ng/mL] | plasma concentration with disclosed compositions versus control formulations (rat, in vivo, po) | Structure (SMILES) | concentration at 1 h [1] [ng/mL] | concentration at 2 h [1] [ng/mL] | concentration at 2 h (rat, in vivo, po, test animals (disclosed test formulation), rats) [ng/mL] | plasma concentration with disclosed compositions versus control formulations (oral, rats, disclosed formulation compared with control formulation)
1 | – | – | – | – | – | CC(C)CN(C[C@@H](O)[C@H](Cc1ccccc1)NC(=O)O[C@H]1CO[C@H]2OCC[C@H]21)S(=O)(=O)c1ccc(N)cc1 [darunavir] | ~185 | ~63 | ~153 | double the plasma concentration
2 | ~139 | ~117 | ~133 | ~142 | higher levels than control formulations | O=C1Nc2ccc(Cl)cc2[C@@](C#CC2CC2)(C(F)(F)F)O1 [efavirenz] | – | – | – | –
